These are literature values, as cited in PMC2211560 (PLoS Medicine, 2008).

The structures appear in SMILES notation. Where two headings read alike, the source gives them in different places.

For data set [1] the following is noted: rats, cited from earlier work.
The conditions of data set [2]: monkeys, cited from earlier work.
The conditions of data set [3]: cited from earlier work.
Another data set relates to several tumor types. To be noted: Phase I trials; renal cell cancer, soft tissue sarcoma, cervical, endometrial, non-small cell cancer, non-Hodgkins lymphoma; cited from earlier work.
For data set [4] the following is noted: rats and monkeys; daily for 14 days or daily for 5 days IV every 2 weeks, 4 courses; cited from earlier work.
For data set [5] the following is noted: in vitro or in vivo; cited from earlier work.
Data set [6] has as its system cytochrome P450 3A (CYP3A). To be noted: human liver microsomal fractions; cited from earlier work. Background: Microsomes from liver hold many membrane-bound enzymes, among them those of drug oxidation.
The conditions of data set [7]: cited from earlier work. The source holds these as a separate data set.
Where [8] appears, read: doses of 0.1-2.5 mg/kg, printed jointly for monkeys and rats.

What is called half-life is how long it takes for the measured level to halve. In the case of `CO[C@H]1C[C@@H]2CC[C@@H](C)[C@@](O)(O2)C(=O)C(=O)N2CCCC[C@H]2C(=O)O[C@H]([C@H](C)C[C@@H]2CC[C@@H](OC(=O)C(C)(CO)CO)[C@H](OC)C2)CC(=O)[C@H](C)/C=C(\C)[C@@H](O)[C@@H](OC)C(=O)[C@H](C)C[C@H](C)/C=C/C=C/C=C/1C` [CCI-779], the elimination half life in data set [1] (setting [8]) and in data set [2] (setting [8]) was 8 to 16 h each time. For the same compound, the “volume of distribution (Vdss)” value in data set [1] was 13 to 19 L/kg; in data set [2], 1 to 5 L/kg. The “blood/plasma (B/P) ratio, mean (range)” value in data set [3] (0.75 to 3.12 mg/m^2 daily x 5 schedule) is listed as 9.8 (2.4-20). Moreover, the “mean exposure ratio (rapamycin to CCI-779)” value in data set [3] (blood, after CCI-779) was approximately 3.2. In addition, the half-life in data set [3] (weekly dosing) was 19.3 h. In addition, the “half-life, range” value in data set [3] (weekly dosing) was 13 to 39 h. For the same compound, the mean clearance in data set [3] (weekly dosing) is 22 L/h. Moreover, the “volume of distribution at steady state” value in data set [3] (weekly dosing) is 306 L. Also, the Tumor regression entry in the data set with several tumor types was “less than 50%”. In data set [4], the life-threatening toxicity result is recorded as “No life-threatening toxicity was observed”. Moreover, in data set [5], the mutagenic effects result was “no mutagenic effects”. In addition, the metabolising enzyme entry in data set [6] is on record as “primarily metabolized by cytochrome P450 3A (CYP3A)”. Moreover, the MTD is 15 mg/m^2 in data set [7] (daily x 5 every 2 weeks, heavily pretreated patients); 19.1 mg/m^2 in data set [7] (daily x 5 every 2 weeks, minimally pretreated patients); “has not yet been reached” in data set [7] (weekly schedule, doses 7.5 mg/m^2 to 220 mg/m^2).
